Results on five compounds are retold here after PubChem BioAssay (NCI).

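48-hour exposure; five concentrations; linearly interpolated endpoints. TGI is the concentration that stops growth completely.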

Common to all, as to assay: NCI-60 cell line screen, 48 h
Assay [1] relates to K-562 leukemia.
Assay [2] concerns SF-295 CNS.
In assay [3] the test system is COLO 205 colon.
For assay [4], the system named is RXF 393 renal.
Assay [5] relates to HL-60(TB) leukemia.
Assay [6] relates to DMS 273 small cell lung.
The test system of assay [7] is OVCAR-5 ovarian.
In assay [8] the test system is OVCAR-3 ovarian.
Assay [9] relates to SK-MEL-5 melanoma.
Assay [10] relates to SK-MEL-2 melanoma.
Assay [11] deals with HCT-116 colon.
The test system of assay [12] is MCF7 breast.
The subject of assay [13] is HOP-62 NSCLC.
In assay [14] the test system is SW-620 colon.
The test system of assay [15] is HT29 colon.
The test system of assay [16] is SK-MEL-28 melanoma.
The subject of assay [17] is SK-OV-3 ovarian.
For assay [18], the system named is OVCAR-4 ovarian.
The test system of assay [19] is A549 NSCLC.
For assay [20], the system named is IGROV1 ovarian.

For `CCCN1C(=O)/C(=C(/O)C(=O)OCC)C(c2ccc(OC)c(OC)c2)C1=O` (stereo unspecified), the TGI in assay [1], in assay [2], in [3], in assay [4], in [5] and in assay [6] was > 100 µM each time. For the same compound, the TGI in assay [7] was > 100 µM; in assay [8], > 66.1 µM; in assay [9] it was > 100 µM; in assay [10], > 100 µM; in assay [11], > 100 µM; in assay [12], > 100 µM. Further, the TGI in assay [13], in assay [14], in [15], in [16], in assay [17] and in [18] was > 100 µM each time. Further, the TGI in assay [19] and in [20] was > 100 µM each time.

With `COc1cc(-c2coc3c(OC)c(OC4OC(COC5OC(C)C(O)C(O)C5O)C(O)C(O)C4O)c(OC)c(O)c3c2=O)cc(C)c1O` (stereo unspecified), the TGI in assay [1] was found to be 34.6 µM; in [2] it was 38 µM; in assay [3], 34.9 µM; in [4], 32.5 µM; in assay [7] it was 45.5 µM; in [8], 47.2 µM. Further, the TGI came to 26.5 µM in assay [9]; 59.9 µM in [10]; 47.4 µM in [12]; 81.9 µM in assay [13]; 30.9 µM in assay [14]; 43.5 µM in [15]. The TGI was 34.4 µM in assay [16]; 60.3 µM in assay [17]; 69.5 µM in assay [18]; > 100 µM in assay [19]; 53.1 µM in [20].

With `O=c1cc2cc(O)[nH]c(=O)c2c(O)[nH]1`, the TGI in assay [1], in [2], in assay [3], in assay [4], in [5] and in assay [6] was > 100 µM each time. Also, the TGI in assay [7], in [8], in assay [9], in [11], in [13] and in assay [14] was > 100 µM in each case. For the same compound, the TGI in assay [15], in assay [17], in assay [18], in assay [19] and in assay [20] was > 100 µM each time.

In the case of `CC(C)(C)c1cc(C2NC(=O)NC2=O)cc(C(C)(C)C)c1O` (stereo unspecified), the TGI in [1] was > 100 µM; in assay [2] it was > 100 µM; in assay [3] it was > 100 µM; in assay [4], 95.7 µM; in assay [7], > 100 µM; in [8], > 100 µM. Moreover, the TGI in assay [10] is > 100 µM; in assay [11], 84.5 µM; in assay [12], 83.3 µM; in [13], > 100 µM; in assay [14] it was > 100 µM; in [15], > 100 µM. The TGI in assay [16], in [17], in [18], in [19] and in assay [20] was > 100 µM throughout.

Consider `CC(=O)OC1C(O)C(C)OC(OC(=O)C2CCC3C(C2)OC2(CC(OC(=O)/C=C/c4ccccc4)C(C)CO2)C32CO2)C1OC1OC(C)C(O)C(O)C1O` (stereo unspecified), for which the TGI in assay [1] worked out at 2.29 µM; in assay [2], 0.542 µM; in [3], 0.0569 µM; in [4], 0.208 µM; in [5], 0.579 µM; in assay [6], 0.151 µM. The TGI in assay [7] stood at 1.24 µM; in [8] it was 0.0917 µM; in assay [9], 0.0897 µM; in assay [10], 0.0389 µM; in assay [11], 0.709 µM; in assay [12], 0.0917 µM. The TGI in assay [13] came to 0.223 µM; in assay [14] it was 0.568 µM; in assay [15] it was 0.576 µM; in assay [16] it was 0.0685 µM; in [17], 0.213 µM; in [18], 0.0706 µM. For the same compound, the TGI came out at 1.3 µM in assay [19] and 0.131 µM in assay [20].
